From ChEMBL document CHEMBL2417495, “N-Methylanilide and N-methylbenzamide derivatives as phosphodiesterase 10A (PDE10A) inhibitors” (Bioorg Med Chem, 2013)

How the values were obtained:
[1] = species: Rattus norvegicus; assay: Antipsychotic activity in rat assessed as inhibition of amphetamine-stimulated locomotor activity; type: functional
[2] = tested on: Liver microsomes; assay: Intrinsic clearance in human liver microsomes; type: ADME, Microsome
[3] = biological target: T1, cAMP and cAMP-inhibited cGMP 3',5'-cyclic phosphodiesterase 10A (Homo sapiens, UniProt Q9Y233); assay: Inhibition of PDE10A (unknown origin) at 2 uM
T1 sequence (Q9Y233 whole entry): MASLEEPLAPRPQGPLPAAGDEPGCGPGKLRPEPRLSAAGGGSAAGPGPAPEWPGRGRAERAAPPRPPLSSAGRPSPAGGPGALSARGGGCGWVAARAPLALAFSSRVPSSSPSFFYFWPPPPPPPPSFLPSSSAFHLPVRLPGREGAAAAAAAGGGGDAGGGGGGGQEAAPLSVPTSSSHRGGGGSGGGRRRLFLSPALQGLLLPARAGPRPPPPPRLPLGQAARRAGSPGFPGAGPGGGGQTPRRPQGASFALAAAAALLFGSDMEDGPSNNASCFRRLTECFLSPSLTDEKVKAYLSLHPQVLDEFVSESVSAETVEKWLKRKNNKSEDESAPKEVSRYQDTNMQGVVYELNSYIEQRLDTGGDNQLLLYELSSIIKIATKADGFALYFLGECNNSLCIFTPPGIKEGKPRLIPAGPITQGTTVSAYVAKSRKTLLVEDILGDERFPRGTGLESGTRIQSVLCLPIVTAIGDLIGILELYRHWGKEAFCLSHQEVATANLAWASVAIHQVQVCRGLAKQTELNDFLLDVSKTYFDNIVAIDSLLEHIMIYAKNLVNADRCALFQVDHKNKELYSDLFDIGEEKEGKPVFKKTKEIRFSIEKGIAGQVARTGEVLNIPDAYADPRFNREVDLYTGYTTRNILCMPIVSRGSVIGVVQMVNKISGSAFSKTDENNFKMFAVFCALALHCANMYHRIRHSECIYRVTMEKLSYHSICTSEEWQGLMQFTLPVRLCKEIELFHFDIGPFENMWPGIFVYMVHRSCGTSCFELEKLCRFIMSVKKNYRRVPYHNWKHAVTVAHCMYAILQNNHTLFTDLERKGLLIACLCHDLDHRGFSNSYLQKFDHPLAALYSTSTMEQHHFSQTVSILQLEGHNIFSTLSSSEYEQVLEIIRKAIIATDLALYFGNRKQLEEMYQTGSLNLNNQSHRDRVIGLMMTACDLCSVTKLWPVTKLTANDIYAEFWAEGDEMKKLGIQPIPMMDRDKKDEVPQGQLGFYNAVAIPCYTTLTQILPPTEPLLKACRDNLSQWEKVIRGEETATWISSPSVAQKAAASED

[4] = biological target: T1, cAMP and cAMP-inhibited cGMP 3',5'-cyclic phosphodiesterase 10A; assay: Inhibition of PDE10A (unknown origin)
[5] = biological target: High affinity cGMP-specific 3',5'-cyclic phosphodiesterase 9A (Homo sapiens) (UniProt O76083); assay: Inhibition of PDE9A (unknown origin) at 2 uM
Sequence of High affinity cGMP-specific 3',5'-cyclic phosphodiesterase 9A (Homo sapiens) (O76083 whole entry): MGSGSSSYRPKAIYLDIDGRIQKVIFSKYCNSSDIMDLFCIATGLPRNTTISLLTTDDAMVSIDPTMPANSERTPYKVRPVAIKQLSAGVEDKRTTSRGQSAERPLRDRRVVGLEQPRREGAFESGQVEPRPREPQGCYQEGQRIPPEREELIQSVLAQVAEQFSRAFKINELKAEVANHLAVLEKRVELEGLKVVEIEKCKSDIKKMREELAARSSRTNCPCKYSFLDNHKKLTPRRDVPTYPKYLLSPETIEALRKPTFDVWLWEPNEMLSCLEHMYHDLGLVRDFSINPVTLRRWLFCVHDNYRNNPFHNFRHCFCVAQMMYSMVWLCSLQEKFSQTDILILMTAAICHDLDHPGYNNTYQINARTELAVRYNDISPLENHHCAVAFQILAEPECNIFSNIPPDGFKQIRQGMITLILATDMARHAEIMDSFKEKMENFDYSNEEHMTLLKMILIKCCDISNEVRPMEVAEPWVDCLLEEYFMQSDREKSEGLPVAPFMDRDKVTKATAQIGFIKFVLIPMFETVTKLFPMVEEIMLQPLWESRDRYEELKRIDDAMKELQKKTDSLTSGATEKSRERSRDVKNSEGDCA

[6] = biological target: 3',5'-cyclic-AMP phosphodiesterase 4D (Homo sapiens) (UniProt Q08499); assay: Inhibition of PDE4D (unknown origin) at 2 uM
Sequence of 3',5'-cyclic-AMP phosphodiesterase 4D (Homo sapiens) (Q08499 whole entry): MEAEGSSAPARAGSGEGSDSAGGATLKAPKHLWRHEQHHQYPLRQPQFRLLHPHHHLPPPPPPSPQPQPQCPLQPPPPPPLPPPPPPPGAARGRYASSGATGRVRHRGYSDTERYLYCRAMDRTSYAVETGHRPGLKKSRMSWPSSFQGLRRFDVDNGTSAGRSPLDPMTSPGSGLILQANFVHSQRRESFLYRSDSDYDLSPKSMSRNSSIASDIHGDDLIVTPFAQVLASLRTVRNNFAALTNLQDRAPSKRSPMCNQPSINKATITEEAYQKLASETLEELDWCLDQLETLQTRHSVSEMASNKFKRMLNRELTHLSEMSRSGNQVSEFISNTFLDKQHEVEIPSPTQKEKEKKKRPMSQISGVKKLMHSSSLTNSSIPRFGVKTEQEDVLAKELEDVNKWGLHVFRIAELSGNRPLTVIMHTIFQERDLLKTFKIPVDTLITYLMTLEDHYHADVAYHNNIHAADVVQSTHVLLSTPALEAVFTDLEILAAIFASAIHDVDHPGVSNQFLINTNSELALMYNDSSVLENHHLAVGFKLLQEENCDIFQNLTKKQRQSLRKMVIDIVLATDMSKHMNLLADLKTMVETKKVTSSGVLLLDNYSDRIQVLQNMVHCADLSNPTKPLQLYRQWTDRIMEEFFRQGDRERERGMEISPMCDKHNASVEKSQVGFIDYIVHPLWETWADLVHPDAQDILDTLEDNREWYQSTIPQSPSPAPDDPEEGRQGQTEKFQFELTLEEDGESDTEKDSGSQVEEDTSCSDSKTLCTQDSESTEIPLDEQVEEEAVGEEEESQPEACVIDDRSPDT

[7] = biological target: cGMP-inhibited 3',5'-cyclic phosphodiesterase 3A (Homo sapiens) (UniProt Q14432); assay: Inhibition of PDE3A (unknown origin) at 2 uM
Sequence of cGMP-inhibited 3',5'-cyclic phosphodiesterase 3A (Homo sapiens) (Q14432 whole entry): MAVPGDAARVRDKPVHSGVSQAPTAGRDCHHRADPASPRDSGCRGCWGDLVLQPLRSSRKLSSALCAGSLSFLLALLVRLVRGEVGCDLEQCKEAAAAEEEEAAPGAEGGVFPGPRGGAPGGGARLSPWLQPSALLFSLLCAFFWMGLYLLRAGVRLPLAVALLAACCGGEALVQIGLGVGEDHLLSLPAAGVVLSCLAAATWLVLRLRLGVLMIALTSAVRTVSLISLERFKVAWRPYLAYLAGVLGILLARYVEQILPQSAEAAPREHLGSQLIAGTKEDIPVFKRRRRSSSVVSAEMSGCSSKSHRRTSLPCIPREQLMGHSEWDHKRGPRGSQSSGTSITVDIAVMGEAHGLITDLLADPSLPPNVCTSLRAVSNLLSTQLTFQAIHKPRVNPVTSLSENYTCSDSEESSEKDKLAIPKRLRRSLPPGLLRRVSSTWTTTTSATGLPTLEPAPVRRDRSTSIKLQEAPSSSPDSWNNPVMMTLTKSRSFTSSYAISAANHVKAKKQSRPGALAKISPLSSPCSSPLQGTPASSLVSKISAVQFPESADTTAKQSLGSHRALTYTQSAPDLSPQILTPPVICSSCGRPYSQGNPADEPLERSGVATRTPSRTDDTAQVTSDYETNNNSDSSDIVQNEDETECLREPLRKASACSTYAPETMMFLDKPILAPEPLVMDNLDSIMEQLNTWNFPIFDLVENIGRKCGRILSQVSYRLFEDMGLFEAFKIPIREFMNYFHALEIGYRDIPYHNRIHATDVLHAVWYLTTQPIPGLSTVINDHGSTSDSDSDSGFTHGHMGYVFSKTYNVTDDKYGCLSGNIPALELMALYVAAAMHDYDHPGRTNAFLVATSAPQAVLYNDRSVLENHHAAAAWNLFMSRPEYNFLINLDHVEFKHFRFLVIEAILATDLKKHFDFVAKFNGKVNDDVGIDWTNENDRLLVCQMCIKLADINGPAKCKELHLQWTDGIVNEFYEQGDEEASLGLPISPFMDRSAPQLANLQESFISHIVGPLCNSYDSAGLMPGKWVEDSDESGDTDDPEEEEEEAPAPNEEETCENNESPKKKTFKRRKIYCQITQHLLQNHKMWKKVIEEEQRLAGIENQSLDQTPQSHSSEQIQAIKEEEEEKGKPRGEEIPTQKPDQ

[8] = biological target: cGMP-dependent 3',5'-cyclic phosphodiesterase (Homo sapiens) (UniProt O00408); assay: Inhibition of PDE2 (unknown origin) at 2 uM
Sequence of cGMP-dependent 3',5'-cyclic phosphodiesterase (Homo sapiens) (O00408 whole entry): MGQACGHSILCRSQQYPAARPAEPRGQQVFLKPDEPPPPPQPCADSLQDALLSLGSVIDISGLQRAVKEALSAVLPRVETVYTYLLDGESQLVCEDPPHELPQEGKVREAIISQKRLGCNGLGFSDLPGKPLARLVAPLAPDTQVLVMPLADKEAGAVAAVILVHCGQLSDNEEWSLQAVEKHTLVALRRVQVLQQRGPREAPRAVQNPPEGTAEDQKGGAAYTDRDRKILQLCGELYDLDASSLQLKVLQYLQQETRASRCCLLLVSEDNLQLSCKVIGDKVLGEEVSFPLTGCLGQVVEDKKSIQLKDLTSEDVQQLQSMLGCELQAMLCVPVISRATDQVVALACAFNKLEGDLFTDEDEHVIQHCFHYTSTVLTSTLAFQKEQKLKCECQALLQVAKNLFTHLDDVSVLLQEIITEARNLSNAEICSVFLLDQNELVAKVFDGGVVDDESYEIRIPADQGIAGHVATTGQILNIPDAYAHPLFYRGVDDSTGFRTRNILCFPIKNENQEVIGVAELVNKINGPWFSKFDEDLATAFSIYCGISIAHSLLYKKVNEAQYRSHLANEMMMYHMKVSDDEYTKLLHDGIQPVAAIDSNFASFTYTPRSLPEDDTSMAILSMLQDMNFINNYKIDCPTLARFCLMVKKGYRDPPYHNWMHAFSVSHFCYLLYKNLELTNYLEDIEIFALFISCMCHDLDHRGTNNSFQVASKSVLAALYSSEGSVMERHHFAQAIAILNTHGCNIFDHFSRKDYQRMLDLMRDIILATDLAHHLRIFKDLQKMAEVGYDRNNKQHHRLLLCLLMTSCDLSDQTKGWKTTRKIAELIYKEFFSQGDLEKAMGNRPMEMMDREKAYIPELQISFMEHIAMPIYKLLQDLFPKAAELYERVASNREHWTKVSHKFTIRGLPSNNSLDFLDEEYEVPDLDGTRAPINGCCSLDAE

[9] = species: Homo sapiens; assay: Selectivity ratio of IC50 for PDE (unknown origin) to IC50 for PDE10A (unknown origin)
[10] = Ratio of drug uptake in brain to plasma in rat; type: ADME; conditions: read-out: BPR
[11] = biological target: Voltage-gated inwardly rectifying potassium channel KCNH2 (Homo sapiens, UniProt Q12809); assay: Inhibition of human ERG

Compound	inhibition [3]	IC50 [4]	further results
Cn1cc(-c2ccncc2)c(-c2ccc(OCc3ccc4ccccc4n3)cc2)n1 [MARDEPODECT]			ED50 [1]: 1.8 mg/kg; CLH [2]: 2.2 L/min
CN(C(=O)c1ccc(OCc2ccc3ccccc3n2)cc1)c1ccn2ncnc2c1	100%	400 nM	
CN(C(=O)c1ccc2ncsc2c1)c1ccc(OCc2nc3ccccc3n2C)cc1	104%	61 nM	
CN(C(=O)c1cc(-c2ccncc2)n[nH]1)c1ccc(OCc2ccc3ccccc3n2)cc1	99%	110 nM	
CN(C(=O)c1ccc(OCc2ccc3ccccc3n2)cc1)c1ccncc1	101%	140 nM	
CN(C(=O)c1cccnc1)c1ccc(OCc2ccc3ccccc3n2)cc1	62%		
CN(C(=O)c1ccc(-n2ccnc2)cc1)c1ccc(OCc2ccc3ccccc3n2)cc1	98%	460 nM	
CN(C(=O)c1cnc(-c2cccnc2)s1)c1ccc(OCc2ccc3ccccc3n2)cc1	103%	87 nM	
Cc1cccc(COc2ccc(N(C)C(=O)c3ccc4ncsc4c3)cc2)n1	90%	1600 nM	
CN(C(=O)c1cc(-c2ccccn2)n[nH]1)c1ccc(OCc2ccc3ccccc3n2)cc1	100%	12 nM	CLH [2]: 2.4 L/min; inhibition [5]: 0%; inhibition [6]: 0%; inhibition [7]: 0%; inhibition [8]: 12%
O=C(Nc1ccc(OCc2ccc3ccccc3n2)cc1)c1ccncc1	33%		
CN(C(=O)c1cnc(-c2ccncc2)s1)c1ccc(OCc2ccc3ccccc3n2)cc1	101%	88 nM	
CN(C(=O)c1ccncc1)c1ccc(OCc2cn3ccccc3n2)cc1	88%	1600 nM	
CN(C(=O)c1ccc(OCc2ccc3ccccc3n2)cc1)c1ccc2ncnn2c1	101%	240 nM	
CN(C(=O)c1ccc(OCc2ccc3ccccc3n2)cc1)c1ccc2ncoc2c1	105%	93 nM	
CN(C(=O)c1ccc(OCc2ccc3ccccc3n2)cc1)c1ccccc1	94%	950 nM	
CN(C(=O)c1ccc2ncsc2c1)c1ccc(OCc2ccc3ccccc3n2)cc1	101%	31 nM	CLH [2]: 2.2 L/min; inhibition [5]: 5%; inhibition [8]: 1%
CN(C(=O)c1cc(-c2ccccc2)n[nH]1)c1ccc(OCc2ccc3ccccc3n2)cc1	102%	24 nM	
CN(C(=O)c1ccc(OCc2ccc3ccccc3n2)cc1)c1ccc2nccn2c1	105%	130 nM	
CN(C(=O)c1ccc2ncsc2c1)c1ccc(OCc2nc3ccccc3o2)cc1	98%	920 nM	
CCCCN(C(=O)c1ccncc1)c1ccc(OCc2ccc3ccccc3n2)cc1		660 nM	
CN(C(=O)c1ccccc1)c1ccc(OCc2ccc3ccccc3n2)cc1	96%	660 nM	
CCN(C(=O)c1ccncc1)c1ccc(OCc2ccc3ccccc3n2)cc1		750 nM	
CN(C(=O)c1ccccn1)c1ccc(OCc2ccc3ccccc3n2)cc1	27%		
CN(C(=O)c1cc(-c2cccnc2)n[nH]1)c1ccc(OCc2ccc3ccccc3n2)cc1	101%	13 nM	
CN(C(=O)c1ccncc1)c1ccc(OCc2ccc3ccccc3n2)cc1	80%	250 nM	Ratio IC50 [9]: > 50; ED50 [1]: 60 mg/kg; Kp [10]: 0.6; IC50 [11]: > 50000 nM; CLH [2]: 1.1 L/min; inhibition [5]: 22%; inhibition [6]: 4%; inhibition [7]: 16%; inhibition [8]: 14%
CN(C(=O)c1ccc(OCc2ccc3ccccc3n2)cc1)c1ccc2ncsc2c1	105%	16 nM	CLH [2]: 6.1 L/min; inhibition [5]: 7%; inhibition [6]: 13%; inhibition [7]: 12%; inhibition [8]: 15%
